Among the data in paper PMC6934184, “Selective DNA-PKcs inhibition extends the therapeutic index of localized radiotherapy and chemotherapy” (The Journal of Clinical Investigation, 2019) are inhibition values, retold here.

The target in the test is T1, PAK3 (Homo sapiens, UniProt O75914).
T1 construct: purchased Thermo Fisher Scientific (Life Technologies) SelectScreen
Description: SelectScreen Z'LYTE. The format is biochemical. Put shortly: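 Percent values come from Thermo SelectScreen profiling of NU5455, combining activity and binding assays. CSF1R was run in Z'LYTE format at Km app ATP, and CAMK1 in Adapta format with ATP listed at 10.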

Usually inhibition stands for the change of the read-out against control, counted positive when it falls.

T1 sequence (O75914 whole entry): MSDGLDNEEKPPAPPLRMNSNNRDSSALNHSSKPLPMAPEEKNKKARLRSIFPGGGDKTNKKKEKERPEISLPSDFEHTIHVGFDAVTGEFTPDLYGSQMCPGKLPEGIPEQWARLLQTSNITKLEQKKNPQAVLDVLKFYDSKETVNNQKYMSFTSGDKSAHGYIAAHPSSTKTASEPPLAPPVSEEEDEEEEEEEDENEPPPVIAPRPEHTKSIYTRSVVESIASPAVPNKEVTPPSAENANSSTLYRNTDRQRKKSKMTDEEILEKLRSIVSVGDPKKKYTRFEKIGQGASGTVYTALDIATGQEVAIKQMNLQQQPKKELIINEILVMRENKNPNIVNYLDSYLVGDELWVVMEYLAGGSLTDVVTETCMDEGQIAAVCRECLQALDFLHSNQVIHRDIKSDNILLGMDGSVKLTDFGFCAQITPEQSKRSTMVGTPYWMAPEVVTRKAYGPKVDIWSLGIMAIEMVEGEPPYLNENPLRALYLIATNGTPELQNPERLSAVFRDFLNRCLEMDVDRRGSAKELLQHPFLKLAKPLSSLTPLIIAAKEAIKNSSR

Regarding `CN(C(=O)CN1CCOCC1)c1ccc2sc3c(-c4cccc5c(=O)cc(N6CC7CCC(C6)O7)oc45)cccc3c2c1` [NU5455], the inhibition at 1 µM is -42.6%.
